The target of series [1] is Phosphatidylinositol 4,5-bisphosphate 3-kinase catalytic subunit alpha isoform (Homo sapiens, UniProt P42336).
Description: Inhibition of human recombinant PI3K p110alpha after 1 hr by radiometric scintillation proximity assay
Series [2] has as its target Phosphatidylinositol 4,5-bisphosphate 3-kinase catalytic subunit beta isoform (Homo sapiens, UniProt P42338). Nature of the series: Inhibition of human recombinant PI3K p110beta after 1 hr by radiometric scintillation proximity assay. On the technique in general: SPA uses beads or plates that emit light when radiolabelled molecules are held near them.
Series [3] in a line: Metabolic stability in mouse liver microsomes assessed as compound metabolized at […] after 30 mins by MS analysis. Type of series: ADME, Microsome. The note with it: read-out: Activity. In general terms: Microsomes from liver hold many membrane-bound enzymes, among them those of drug oxidation.
Series [4] can be described thus: Metabolic stability in mouse liver microsomes assessed as compound metabolized at […] after 15 mins by MS analysis. Type of series: ADME, Microsome. The note with it: read-out: Activity.
Series [5] deals with IGROV-1. Nature of the series: Cell cycle arrest in human IGROV1 cells assessed as accumulation at G1 phase at 1 fold IC50 after 24 hrs by flow cytometry. Type of series: functional. (Flow cytometry measures light scatter and fluorescence of single cells or particles in a stream.)
For series [6], the system named is IGROV-1. As to the kind of experiment: Cell cycle arrest in human IGROV1 cells assessed as accumulation at G1 phase at 5 fold IC50 after 24 hrs by flow cytometry. Type of series: functional.
The subject of series [7] is IGROV-1. As to the kind of experiment: Cell cycle arrest in human IGROV1 cells assessed as accumulation at S phase at 1 fold IC50 after 24 hrs by flow cytometry. It counts as functional.
For series [8], the system named is IGROV-1. As to the kind of experiment: Cell cycle arrest in human IGROV1 cells assessed as accumulation at S phase at 5 fold IC50 after 24 hrs by flow cytometry. It counts as functional.
Series [9] deals with IGROV-1. As to the kind of experiment: Cell cycle arrest in human IGROV1 cells assessed as accumulation at G2/M phase at 1 fold IC50 after 24 hrs by flow cytometry. It counts as functional.
In series [10] the test system is IGROV-1. Nature of the series: Cell cycle arrest in human IGROV1 cells assessed as accumulation at G2/M phase at 5 fold IC50 after 24 hrs by flow cytometry. It counts as functional.
In series [11] the target is Phosphatidylinositol 4,5-bisphosphate 3-kinase catalytic subunit gamma isoform (Homo sapiens, UniProt P48736).
Description: Inhibition of human recombinant PI3K p110gamma after 1 hr by radiometric scintillation proximity assay
Series [12] has as its system IGROV-1. Nature of the series: cells. The note with it: Homo sapiens, IGROV-1, 96 h.
Description: Cytotoxicity against human IGROV1 cells after 96 hrs by SRB assay

Molecules are shown by their SMILES.

Sequence of Phosphatidylinositol 4,5-bisphosphate 3-kinase catalytic subunit alpha isoform (P42336 whole entry, canonical isoform): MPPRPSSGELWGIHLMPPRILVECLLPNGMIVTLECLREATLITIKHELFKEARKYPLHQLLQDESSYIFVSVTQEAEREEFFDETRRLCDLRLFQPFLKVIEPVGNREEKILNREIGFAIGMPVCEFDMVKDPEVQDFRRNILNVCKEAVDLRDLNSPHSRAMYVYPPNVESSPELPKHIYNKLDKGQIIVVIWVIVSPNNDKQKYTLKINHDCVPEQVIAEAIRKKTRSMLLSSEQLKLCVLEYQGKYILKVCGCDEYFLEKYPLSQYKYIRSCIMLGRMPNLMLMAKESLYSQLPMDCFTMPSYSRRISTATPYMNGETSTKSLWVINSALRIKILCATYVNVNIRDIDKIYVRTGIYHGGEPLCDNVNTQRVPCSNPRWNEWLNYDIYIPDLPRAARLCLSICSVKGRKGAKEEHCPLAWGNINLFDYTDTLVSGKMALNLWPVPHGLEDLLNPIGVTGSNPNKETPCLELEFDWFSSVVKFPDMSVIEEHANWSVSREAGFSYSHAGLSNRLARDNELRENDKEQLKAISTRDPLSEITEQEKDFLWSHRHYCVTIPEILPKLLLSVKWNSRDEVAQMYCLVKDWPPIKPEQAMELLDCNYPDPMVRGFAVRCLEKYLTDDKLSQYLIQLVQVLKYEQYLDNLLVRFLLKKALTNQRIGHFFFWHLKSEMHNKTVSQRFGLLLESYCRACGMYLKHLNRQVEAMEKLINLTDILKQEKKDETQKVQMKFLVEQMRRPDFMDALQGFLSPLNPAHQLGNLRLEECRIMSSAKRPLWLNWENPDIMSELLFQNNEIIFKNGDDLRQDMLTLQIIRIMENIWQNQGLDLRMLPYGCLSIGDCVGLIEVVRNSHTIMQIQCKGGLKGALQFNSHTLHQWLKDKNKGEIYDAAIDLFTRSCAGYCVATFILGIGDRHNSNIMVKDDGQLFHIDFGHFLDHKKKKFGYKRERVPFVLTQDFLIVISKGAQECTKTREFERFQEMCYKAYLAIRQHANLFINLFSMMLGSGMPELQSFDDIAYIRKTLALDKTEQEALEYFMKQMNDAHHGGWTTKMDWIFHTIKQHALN
Sequence of Phosphatidylinositol 4,5-bisphosphate 3-kinase catalytic subunit gamma isoform (P48736 whole entry, canonical isoform): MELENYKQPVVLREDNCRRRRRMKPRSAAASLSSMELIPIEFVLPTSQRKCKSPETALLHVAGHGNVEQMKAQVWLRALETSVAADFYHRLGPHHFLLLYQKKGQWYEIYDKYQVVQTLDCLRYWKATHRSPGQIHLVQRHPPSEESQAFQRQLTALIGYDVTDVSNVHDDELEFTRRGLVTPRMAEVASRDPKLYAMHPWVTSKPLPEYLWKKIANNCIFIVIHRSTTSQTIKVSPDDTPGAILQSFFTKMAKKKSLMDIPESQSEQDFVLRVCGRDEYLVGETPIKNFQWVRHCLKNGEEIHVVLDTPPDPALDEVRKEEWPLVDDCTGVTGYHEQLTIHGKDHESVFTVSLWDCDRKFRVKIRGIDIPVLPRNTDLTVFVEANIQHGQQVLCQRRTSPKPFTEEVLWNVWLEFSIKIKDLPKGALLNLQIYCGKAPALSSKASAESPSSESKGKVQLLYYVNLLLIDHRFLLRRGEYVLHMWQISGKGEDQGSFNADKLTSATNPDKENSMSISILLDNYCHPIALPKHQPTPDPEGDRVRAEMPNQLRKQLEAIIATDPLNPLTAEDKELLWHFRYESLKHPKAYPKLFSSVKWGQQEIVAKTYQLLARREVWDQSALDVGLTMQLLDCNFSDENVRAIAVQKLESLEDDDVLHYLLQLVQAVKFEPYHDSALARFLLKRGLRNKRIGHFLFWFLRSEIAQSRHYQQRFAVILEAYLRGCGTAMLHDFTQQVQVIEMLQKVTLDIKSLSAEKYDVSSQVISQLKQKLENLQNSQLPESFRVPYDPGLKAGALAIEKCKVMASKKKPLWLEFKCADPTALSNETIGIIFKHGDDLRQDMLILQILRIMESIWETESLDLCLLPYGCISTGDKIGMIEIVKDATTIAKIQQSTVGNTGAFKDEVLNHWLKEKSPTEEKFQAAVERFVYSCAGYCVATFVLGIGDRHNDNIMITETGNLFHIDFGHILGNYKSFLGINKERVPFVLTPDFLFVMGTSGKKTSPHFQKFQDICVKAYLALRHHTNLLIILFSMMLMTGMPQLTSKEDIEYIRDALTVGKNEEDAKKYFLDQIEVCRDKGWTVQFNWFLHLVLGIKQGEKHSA
Sequence of Phosphatidylinositol 4,5-bisphosphate 3-kinase catalytic subunit beta isoform (P42338 whole entry, canonical isoform): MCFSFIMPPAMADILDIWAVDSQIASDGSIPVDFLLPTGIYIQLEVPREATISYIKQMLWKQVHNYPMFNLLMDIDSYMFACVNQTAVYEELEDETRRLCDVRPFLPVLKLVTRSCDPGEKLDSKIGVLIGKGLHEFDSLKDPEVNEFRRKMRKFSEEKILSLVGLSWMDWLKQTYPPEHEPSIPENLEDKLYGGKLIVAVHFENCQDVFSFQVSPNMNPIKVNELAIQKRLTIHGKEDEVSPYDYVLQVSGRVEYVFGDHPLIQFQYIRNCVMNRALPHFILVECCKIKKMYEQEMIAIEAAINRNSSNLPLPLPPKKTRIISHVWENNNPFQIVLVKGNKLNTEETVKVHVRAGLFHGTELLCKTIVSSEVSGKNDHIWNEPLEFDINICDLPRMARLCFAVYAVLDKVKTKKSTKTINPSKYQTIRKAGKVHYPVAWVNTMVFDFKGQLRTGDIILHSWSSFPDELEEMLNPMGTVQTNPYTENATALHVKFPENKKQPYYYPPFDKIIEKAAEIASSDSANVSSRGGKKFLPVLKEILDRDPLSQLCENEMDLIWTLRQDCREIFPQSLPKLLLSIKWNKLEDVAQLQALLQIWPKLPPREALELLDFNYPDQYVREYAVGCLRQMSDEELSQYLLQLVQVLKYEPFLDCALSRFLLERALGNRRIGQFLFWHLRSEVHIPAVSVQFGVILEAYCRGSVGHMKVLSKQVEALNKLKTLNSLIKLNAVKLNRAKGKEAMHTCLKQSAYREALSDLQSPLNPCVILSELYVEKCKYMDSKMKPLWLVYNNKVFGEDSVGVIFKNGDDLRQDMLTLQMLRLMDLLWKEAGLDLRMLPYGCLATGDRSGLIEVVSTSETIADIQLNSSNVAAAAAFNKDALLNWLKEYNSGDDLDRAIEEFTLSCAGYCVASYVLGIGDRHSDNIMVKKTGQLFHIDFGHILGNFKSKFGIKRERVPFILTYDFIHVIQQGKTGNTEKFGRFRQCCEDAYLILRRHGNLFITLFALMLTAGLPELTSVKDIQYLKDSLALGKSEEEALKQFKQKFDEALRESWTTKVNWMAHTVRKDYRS

Turning to `c1ccc(COc2cccc(-c3nc(-c4ccccn4)cc(N4CCOCC4)n3)c2)cc1`, in [1], the IC50 is more than 10000 nM.
Regarding `c1ccc(COc2cccc(-c3nc(-c4cccnc4)cc(N4CCOCC4)n3)c2)cc1`, the IC50 in [1] was more than 10000 nM.
The same measure, in the same setting: to `c1ccc(COc2cccc(-c3nc(-c4ccncc4)cc(N4CCOCC4)n3)c2)cc1` belongs more than 10000 nM; to `Clc1ccc(-c2cc(N3CCOCC3)nc(-c3cccc(OCc4ccccc4)c3)n2)cc1`, more than 10000 nM; to `Clc1ccc(-c2cc(N3CCOCC3)nc(-c3cccc(OCc4ccccc4)c3)n2)cc1Cl`, more than 10000 nM.
As to `Oc1cccc(-c2nc(-c3ccccn3)cc(N3CCOCC3)n2)c1`, the IC50 was 100 nM in [2], 62 nM in series [1] and 44 nM in series [11]. In addition, in [3], the metabolised at 0.5 h turned out to be 57%. The metabolised at 0.25 h in series [4] worked out at 39%. Moreover, the Activity is listed as 76% in series [5]; 84% in series [6]; 20% in [7]; 5% in series [8]; 3% in series [9]; 10% in series [10]. It took 370 nM to inhibit growth in series [12] by half (GI50).
Turning to `Oc1cccc(-c2nc(-c3cccnc3)cc(N3CCOCC3)n2)c1`, the IC50 in series [2] turned out to be 440 nM; in [1], 260 nM; in series [11], 340 nM. Also, in series [12], the GI50 is 630 nM.
For `Oc1cccc(-c2nc(-c3ccncc3)cc(N3CCOCC3)n2)c1` the same measures were 200 nM, 140 nM, 150 nM and 1200 nM.
`Oc1cccc(-c2nc(-c3ccc(Cl)cc3)cc(N3CCOCC3)n2)c1` yielded a half-inhibitory concentration (IC50) in [1] of 690 nM.
On the same count and under the same terms, to `Oc1cccc(-c2nc(-c3ccc(Cl)c(Cl)c3)cc(N3CCOCC3)n2)c1` belongs 200 nM.
Turning to `Oc1cccc(-c2cc(NCc3ccccn3)nc(N3CCOCC3)n2)c1`, the IC50 in [2] was determined as 2300 nM; in [1] it was 900 nM; in series [11], 7600 nM.
On to `Oc1cccc(-c2cc(NCc3ccncc3)nc(N3CCOCC3)n2)c1`, for which 1000 nM corresponded to half-maximal inhibition in series [1] (IC50).
Take `Oc1cccc(-c2cc(NCCc3ccccn3)nc(N3CCOCC3)n2)c1`: the IC50 in series [2] stood at 2600 nM; in series [1], 250 nM; in series [11] it was 830 nM. The compound also had a GI50 in series [12] of 2200 nM.
For `Oc1cccc(-c2cc(NCCc3cccnc3)nc(N3CCOCC3)n2)c1` the same measures were 1900 nM, 260 nM, 960 nM and 1200 nM.
For `Oc1cccc(-c2cc(NCCc3ccncc3)nc(N3CCOCC3)n2)c1`, the values for the IC50 in series [2], in series [1] and in series [11] were 1600 nM, 140 nM and 740 nM, respectively. Further, the metabolised at 0.5 h in series [3] was 71%. Also, in series [4], the metabolised at 0.25 h was 54%. In addition, the Activity in [5] is given as 75%; in series [6], 87%; in series [7] it was 21%; in series [8], 2%; in [9], 4%; in series [10], 10%. Moreover, in [12], the GI50 turned out to be 700 nM.
Take `Oc1cccc(-c2cc(N3CCOCC3)nc(NCc3ccccn3)n2)c1`: half-maximal inhibition in [1] (IC50) was put at 1000 nM.
Same read-out and setting: to `Oc1cccc(-c2cc(N3CCOCC3)nc(NCc3cccnc3)n2)c1` belongs 880 nM; to `Oc1cccc(-c2cc(N3CCOCC3)nc(NCc3ccncc3)n2)c1`, 860 nM.
As for `Oc1cccc(-c2cc(N3CCOCC3)nc(NCCc3ccccn3)n2)c1`, the IC50 in series [2] came to 5200 nM; in series [1], 180 nM; in series [11], 380 nM. The compound further gave a GI50 in series [12] of 1200 nM.
As to `Oc1cccc(-c2cc(N3CCOCC3)nc(NCCc3cccnc3)n2)c1`, the 50% inhibitory concentration (IC50) in series [1] was 250 nM. The same compound displayed a GI50 in series [12] of 750 nM.
For `Oc1cccc(-c2cc(N3CCOCC3)nc(NCCc3ccncc3)n2)c1` the same measures were 230 nM and 950 nM.
As for `Oc1cccc(-c2cc(OCc3ccccn3)nc(N3CCOCC3)n2)c1`, the IC50 in series [2] is 370 nM; in [1], 110 nM; in series [11] it was 730 nM. The compound also displayed a GI50 in series [12] of 1500 nM.
In turn, `Oc1cccc(-c2cc(N3CCOCC3)nc(OCc3ccccn3)n2)c1` came in with an IC50 in series [1] of 860 nM. This compound returned a GI50 in series [12] of 2500 nM.
For the compound `c1ccc(CCNc2cc(-c3ccc4cc[nH]c4c3)nc(N3CCOCC3)n2)nc1`, in series [1], the IC50 was more than 10000 nM. In [12], this compound came in with a GI50 of 12000 nM.
In series [1], `c1cncc(CCNc2cc(-c3ccc4cc[nH]c4c3)nc(N3CCOCC3)n2)c1` yielded an IC50 of more than 10000 nM. Besides, in [12], the GI50 amounted to 6000 nM.
Compound `c1cc(CCNc2cc(-c3ccc4cc[nH]c4c3)nc(N3CCOCC3)n2)ccn1` yielded an IC50 in [1] of more than 10000 nM. Besides, in series [12], the GI50 was found to be 14500 nM.
As to `CS(=O)(=O)Nc1cccc(-c2cc(NCCc3ccccn3)nc(N3CCOCC3)n2)c1`, the IC50 in [1] was more than 10000 nM. Besides, in series [12], the GI50 came out at 15000 nM.
For `CS(=O)(=O)Nc1cccc(-c2cc(NCCc3cccnc3)nc(N3CCOCC3)n2)c1` the same measures were more than 10000 nM and 11600 nM.
For `CS(=O)(=O)Nc1cccc(-c2cc(NCCc3ccncc3)nc(N3CCOCC3)n2)c1` the same measures were more than 10000 nM and 15000 nM.
As for `c1ccc(CCNc2cc(-c3cccc4[nH]ncc34)nc(N3CCOCC3)n2)nc1`, the metabolised at 0.5 h in series [3] came to 84%. Further, in series [4], the metabolised at 0.25 h was 58%. Also, 1300 nM corresponded to half-maximal inhibition in series [1] (IC50). For the same compound, the GI50 in series [12] amounted to 7800 nM.
The corresponding values for `c1cncc(CCNc2cc(-c3cccc4[nH]ncc34)nc(N3CCOCC3)n2)c1` are 98%, 66%, 660 nM and 2900 nM.
For `c1cc(-c2cc(NCCc3ccncc3)nc(N3CCOCC3)n2)c2cn[nH]c2c1` the same measures were 68%, 37%, 770 nM and 2700 nM.
Regarding `c1ccc(COc2cc(-c3ccc4cc[nH]c4c3)nc(N3CCOCC3)n2)nc1`, the IC50 in series [1] is more than 10000 nM. The compound also registered a GI50 in series [12] of 6000 nM.
`CS(=O)(=O)Nc1ccc(-c2cc(OCc3ccccn3)nc(N3CCOCC3)n2)cc1` registered a 50% inhibitory concentration (IC50) in series [1] of more than 10000 nM. The compound further displayed a GI50 in series [12] of 16000 nM.
Turning to `c1ccc(COc2cc(-c3cccc4[nH]ncc34)nc(N3CCOCC3)n2)nc1`, the metabolised at 0.5 h in [3] was found to be 66%. Also, the metabolised at 0.25 h in series [4] was 44%. Moreover, the IC50 in series [1] was 500 nM. Further, growth in series [12] was halved (GI50) at 1900 nM.
In [1], `c1cncc(CCNc2nc(-c3ccc4cc[nH]c4c3)cc(N3CCOCC3)n2)c1` returned an IC50 of 7200 nM. Besides, in [12], the GI50 came to 4200 nM.
On to `c1cc(CCNc2nc(-c3ccc4cc[nH]c4c3)cc(N3CCOCC3)n2)ccn1`, for which the metabolised at 0.5 h in [3] turned out to be 60%. Further, the metabolised at 0.25 h in [4] stood at 38%. In [1], the IC50 was more than 10000 nM. The same compound gave a GI50 in [12] of 3000 nM.
`CS(=O)(=O)Nc1cccc(-c2cc(N3CCOCC3)nc(NCCc3ccccn3)n2)c1` yielded an IC50 in series [1] of more than 10000 nM. In series [12], the GI50 was found to be 11500 nM.
In turn, `CS(=O)(=O)Nc1cccc(-c2cc(N3CCOCC3)nc(NCCc3cccnc3)n2)c1` registered an IC50 in series [1] of more than 10000 nM. In series [12], this compound had a GI50 of 16200 nM.
For the compound `CS(=O)(=O)Nc1cccc(-c2cc(N3CCOCC3)nc(NCCc3ccncc3)n2)c1`, the metabolised at 0.5 h in series [3] was found to be 53%. In series [4], the metabolised at 0.25 h was determined as 33%. Also, in series [1], the IC50 is 9100 nM. In addition, the GI50 in series [12] was found to be 6200 nM.
On to `c1ccc(CCNc2nc(-c3cccc4[nH]ncc34)cc(N3CCOCC3)n2)nc1`, for which the IC50 in series [1] was 1100 nM. Further, the GI50 in [12] was determined as 2700 nM.
The corresponding values for `c1cncc(CCNc2nc(-c3cccc4[nH]ncc34)cc(N3CCOCC3)n2)c1` are 820 nM and 2900 nM.
For `c1cc(-c2cc(N3CCOCC3)nc(NCCc3ccncc3)n2)c2cn[nH]c2c1`, the metabolised at 0.5 h in series [3] was determined as 74%. Also, in series [4], the metabolised at 0.25 h stood at 49%. For the same compound, half-maximal inhibition in [1] (IC50) required 440 nM. The compound also came in with a GI50 in series [12] of 1500 nM.
In [1], `c1ccc(COc2nc(-c3ccc4cc[nH]c4c3)cc(N3CCOCC3)n2)nc1` came in with an IC50 of 5200 nM. For the same compound, the GI50 in series [12] is 9000 nM.
As for `CS(=O)(=O)Nc1ccc(-c2cc(N3CCOCC3)nc(OCc3ccccn3)n2)cc1`, the IC50 in series [1] turned out to be 6200 nM. In series [12], this compound registered a GI50 of 13500 nM.
For `c1ccc(COc2nc(-c3cccc4[nH]ncc34)cc(N3CCOCC3)n2)nc1`, the IC50 in series [1] was 1350 nM. The same compound came in with a GI50 in series [12] of 2300 nM.
Consider `O=c1cc(N2CCOCC2)oc2c(-c3ccccc3)cccc12` [LY-294002], for which the Activity in series [5] is given as 72%; in series [6], 82%; in series [7], 21%; in [8], 3%; in [9], 7%; in series [10], 15%.

One may read the IC50 as the concentration at which inhibition is half-maximal. Usually GI50 stands for the concentration that inhibits growth by half.

For the origin of these results see ChEMBL document CHEMBL1641516, “Preparation and evaluation of trisubstituted pyrimidines as phosphatidylinositol 3-kinase inhibitors. 3-Hydroxyphenol analogues and bioisosteric replacements” (Bioorg Med Chem, 2011).
